Laboratory results from patent US10323037B2, “Aminopyridazinone compounds as protein kinase inhibitors” (Jiangsu Hengrui Medicine Co., Ltd., priority 2014, dated 2019).
Like-named read-outs stand apart in the source and are kept apart here.

Tested on: TMD-8 cells
Experiment: Cell proliferation assay (CellTiter-Glo), TMD-8
Assay type: cell-based
Details: 5-day treatment, read-out: TMD8 cells growth IC50
Method: Cell proliferation assay: TMD-8 and SU-DHL-1 cells were maintained at 37° C. in a humidified atmosphere with 5% CO2 in the recommended medium and serum concentrations. For cell proliferation assay, cells were seeded in 96-well pates at a density of 5,000 to 10,000 cells per well and cultured overnight at 37° C. in recommended medium supplemented with 5-10% FBS. On the next day, the test articles at various concentrations or vehicle control (0.5% DMSO) were added into cell culture. After 5-day treatment, the growth of cells was assayed by the CellTiter-Glo® Luminestceaent Cell Viability Assay (Promega). IC50 values were calculated using GraphPad Prism by plotting the logarithm of the concentration versus percent inhibition of cell growth as compared with the vehicle control.

| Structure (SMILES) | IC50 (Homo sapiens, TMD8, 120 h) [nM] | IC50 [nM] |
| --- | --- | --- |
| CCN(C/C=C/C(=O)N1CCC[C@@H](n2cc(-c3ccc(Oc4ccccc4)cc3)c3c(N)n[nH]c(=O)c32)C1)C1CC1 [Example 30, 4-amino-1-[(3R)-1-[(E)-4-[cyclopropyl(ethyl)amino]but-2-enoyl]-3-piperidyl]-3-(4-phenoxyphenyl)-6H-pyrrolo[2,3-d]pyridazin-7-one] | 10 to 1000 | – |
| CN(C/C=C/C(=O)N1CCC[C@@H](n2cc(-c3ccc(Oc4ccccc4)cc3)c3c(N)n[nH]c(=O)c32)C1)C1CCC1 [Example 31, 4-amino-1-[(3R)-1-[(E)-4-[cyclobutyl(methyl)amino]but-2-enoyl]-3-piperidyl]-3-(4-phenoxyphenyl)-6H-pyrrolo[2,3-d]pyridazin-7-one] | 10 to 1000 | – |
| Nc1n[nH]c(=O)c2c1c(-c1ccc(Oc3ccccc3)cc1)cn2[C@@H]1CCCN(C(=O)/C=C/CN2CCC2)C1 [Example 33, 4-amino-1-[(3R)-1-[(E)-4-(azetidin-1-yl)but-2-enoyl]-3-piperidyl]-3-(4-phenoxyphenyl)-6H-pyrrolo[2,3-d]pyridazin-7-one] | ≤ 10 | – |
| Nc1n[nH]c(=O)c2c1c(-c1ccc(Oc3ccccc3)cc1)cn2[C@@H]1CCCN(C(=O)/C=C/CN2CCCC2)C1 [Example 34, 4-amino-3-(4-phenoxyphenyl)-1-[(3R)-1-[(E)-4-pyrrolidin-1-ylbut-2-enoyl]-3-piperidyl]-6H-pyrrolo[2,3-d]pyridazin-7-one] | ≤ 10 | – |
| Nc1n[nH]c(=O)c2c1c(-c1ccc(Oc3ccccc3)cc1)cn2[C@@H]1CCCN(C(=O)/C=C/CN2CCOCC2)C1 [Example 35, 4-amino-1-[(3R)-1-[(E)-4-morpholinobut-2-enoyl]-3-piperidyl]-3-(4-phenoxyphenyl)-6H-pyrrolo[2,3-d]pyridazin-7-one] | ≤ 10 | – |
| CN(C)C/C=C/C(=O)N1CCCC(n2cc(-c3ccc(Oc4ccccc4)cc3)c3c(N)n[nH]c(=O)c32)C1 (centres unmarked) [Example 38, 4-amino-1-[1-[(E)-4-(dimethylamino)but-2-enoyl]-3-piperidyl]-3-(4-phenoxyphenyl)-6H-pyrrolo[2,3-d]pyridazin-7-one] | ≤ 10 | – |
| CN(C)C/C=C/C(=O)N1CC[C@@H](n2cc(-c3ccc(Oc4ccccc4)cc3)c3c(N)n[nH]c(=O)c32)C1 [Example 39, 4-amino-1-[(3R)-1-[(E)-4-(dimethylamino)but-2-enoyl]pyrrolidin-3-yl]-3-(4-phenoxyphenyl)-6H-pyrrolo[2,3-d]pyridazin-7-one] | ≤ 10 | – |
| CN(C)C/C=C/C(=O)N1CC(n2cc(-c3ccc(Oc4ccccc4)cc3)c3c(N)n[nH]c(=O)c32)C1 [Example 40, 4-amino-1-[1-[(E)-4-(dimethylamino)but-2-enoyl]azetidin-3-yl]-3-(4-phenoxyphenyl)-6H-pyrrolo[2,3-d]pyridazin-7-one] | 10 to 1000 | – |
| CN(C)C/C=C/C(=O)N1CCC[C@H]1Cn1cc(-c2ccc(Oc3ccccc3)cc2)c2c(N)n[nH]c(=O)c21 [Example 41, 4-amino-1-[[(2S)-1-[(E)-4-(dimethylamino)but-2-enoyl]pyrrolidin-2-yl]methyl]-3-(4-phenoxyphenyl)-6H-pyrrolo[2,3-d]pyridazin-7-one] | 10 to 1000 | – |
| CN(C)C/C=C/C(=O)N1CCC(Cn2cc(-c3ccc(Oc4ccccc4)cc3)c3c(N)n[nH]c(=O)c32)C1 (centres unmarked) [Example 43, 4-amino-1-[[1-[(E)-4-(dimethylamino)but-2-enoyl]pyrrolidin-3-yl]methyl]-3-(4-phenoxyphenyl)-6H-pyrrolo[2,3-d]pyridazin-7-one] | 10 to 1000 | – |
| CN(C)C/C=C/C(=O)N1CCC(n2cc(-c3ccc(Oc4ccccc4)cc3)c3c(N)n[nH]c(=O)c32)CC1 [Example 44, 4-amino-1-[1-[(E)-4-(dimethylamino)but-2-enoyl]-4-piperidyl]-3-(4-phenoxyphenyl)-6H-pyrrolo[2,3-d]pyridazin-7-one] | 10 to 1000 | – |
| CN(C)C/C=C/C(=O)N1CCC(F)C(n2cc(-c3ccc(Oc4ccccc4)cc3)c3c(N)n[nH]c(=O)c32)C1 (centres unmarked) [Example 45, 4-amino-1-[1-[(E)-4-(dimethylamino)but-2-enoyl]-4-fluoro-3-piperidyl]-3-(4-phenoxyphenyl)-6H-pyrrolo[2,3 d]pyridazin-7-one] | – | ≤ 10 |
| CN(C)C/C=C/C(=O)NC1CCC(n2cc(-c3ccc(Oc4ccccc4)cc3)c3c(N)n[nH]c(=O)c32)CC1 (centres unmarked) [Example 46, (E)-N-[4-[4-amino-7-oxo-3-(4-phenoxyphenyl)-6H-pyrrolo[2,3 d]pyridazin-1-yl]cyclohexyl]-4-(dimethylamino)but-2-enamide] | – | 10 to 1000 |
| CN(C)C/C=C/C(=O)N1CC(Cn2cc(-c3ccc(Oc4ccccc4)cc3)c3c(N)n[nH]c(=O)c32)C1 [Example 47, 4-amino-1-[[1-[(E)-4-(dimethylamino)but-2-enoyl]azetidin-3-yl]methyl]-3-(4-phenoxyphenyl)-6H-pyrrolo[2,3 d]pyridazin-7-one] | – | ≤ 10 |
| CN(C)C/C=C/C(=O)NC1C2CCC1CC(n1cc(-c3ccc(Oc4ccccc4)cc3)c3c(N)n[nH]c(=O)c31)C2 (centres unmarked) [Example 48, (E)-N-[3-[4-amino-7-oxo-3-(4-phenoxyphenyl)-6H-pyrrolo[2,3 d]pyridazin-1-yl]-8-bicyclo[3.2.1]octanyl]-4-(dimethylamino)but-2-enamide] | – | 10 to 1000 |
| CN(C)C/C=C/C(=O)N1C[C@H](n2cc(-c3ccc(Oc4ccccc4)cc3)c3c(N)n[nH]c(=O)c32)CC(F)(F)C1 [Example 49, 4-amino-1-[(3R)-1-[(E)-4-(dimethylamino)but-2-enoyl]-5,5-difluoro-3-piperidyl]-3-(4-phenoxyphenyl)-6H-pyrrolo[2,3-d]pyridazin-7-one] | 10 to 1000 | – |
| N#C/C(=C\C1CC1)C(=O)N1CCC[C@@H](n2cc(-c3ccc(Oc4ccccc4)cc3)c3c(N)n[nH]c(=O)c32)C1 [Example 50, (E)-2-[(3R)-3-[4-amino-7-oxo-3-(4-phenoxyphenyl)-6H-pyrrolo[2,3-d]pyridazin-1-yl]piperidine-1-carbonyl]-3-cyclopropyl-prop-2-enenitrile] | 10 to 1000 | – |
| C=CC(=O)N1CCCC(n2cc(-c3ccc(OC)cc3)c3c(N)n[nH]c(=O)c32)C1 (centres unmarked) [Example 51, 1-(1-acryloylpiperidin-3-yl)-4-amino-3-(4-methoxyphenyl)-1H-pyrrolo[2,3-d]pyridazin-7(6H)-one] | 10 to 1000 | – |
| COc1ccc(-c2cn(C3CCCN(C(=O)/C=C/CN(C)C)C3)c3c(=O)[nH]nc(N)c23)cc1 (centres unmarked) [Example 52, 4-amino-1-[1-[(E)-4-(dimethylamino)but-2-enoyl]-3-piperidyl]-3-(4-methoxyphenyl)-6H-pyrrolo[2,3-d]pyridazin-7-one] | 1000 to 100000 | – |
| C=CC(=O)N1CCCC(n2cc(-c3ccc(OC)c(Cl)c3)c3c(N)n[nH]c(=O)c32)C1 (centres unmarked) [Example 53, 1-(1-acryloylpiperidin-3-yl)-4-amino-3-(3-chloro-4-methoxyphenyl)-1H-pyrrolo[2,3-d]pyridazin-7(6H)-one] | 10 to 1000 | – |
| COc1ccc(-c2cn(C3CCCN(C(=O)/C=C/CN(C)C)C3)c3c(=O)[nH]nc(N)c23)cc1Cl (centres unmarked) [Example 54, 4-amino-3-(3-chloro-4-methoxy-phenyl)-1-[1-[(E)-4-(dimethylamino)but-2-enoyl]-3-piperidyl]-6H-pyrrolo[2,3-d]pyridazin-7-one] | 10 to 1000 | – |
| C=CC(=O)N1CCCC(n2cc(-c3ccc(Oc4ccccc4F)cc3)c3c(N)n[nH]c(=O)c32)C1 (centres unmarked) [Example 55, 1-(1-acryloylpiperidin-3-yl)-4-amino-3-(4-(2-fluorophenoxy)phenyl)-1H-pyrrolo[2,3-d]pyridazin-7(6H)-one] | ≤ 10 | – |
| C=CC(=O)N1CCC[C@@H](n2cc(-c3ccc(Oc4ccccc4F)cc3)c3c(N)n[nH]c(=O)c32)C1 [Example 56, (R)-1-(1-acryloylpiperidin-3-yl)-4-amino-3-(4-(2-fluorophenoxy)phenyl)-1H-pyrrolo[2,3-d]pyridazin-7(6H)-one] | ≤ 10 | – |
| CN(C)C/C=C/C(=O)N1CCC[C@@H](n2cc(-c3ccc(Oc4ccccc4F)cc3)c3c(N)n[nH]c(=O)c32)C1 [Example 57, 4-amino-1-[(3R)-1-[(E)-4-(dimethylamino)but-2-enoyl]-3-piperidyl]-3-[4-(2-fluorophenoxy)phenyl]-6H-pyrrolo[2,3-d]pyridazin-7-one] | ≤ 10 | – |
| C=CC(=O)N1CCC[C@@H](n2cc(-c3ccc(Oc4c(F)cccc4F)cc3)c3c(N)n[nH]c(=O)c32)C1 [Example 58, (R)-1-(1-acryloylpiperidin-3-yl)-4-amino-3-(4-(2,6-difluorophenoxy)phenyl)-1H-pyrrolo[2,3-d]pyridazin-7(6H)-one] | ≤ 10 | – |
| CN(C)C/C=C/C(=O)N1CCC[C@@H](n2cc(-c3ccc(Oc4c(F)cccc4F)cc3)c3c(N)n[nH]c(=O)c32)C1 [Example 59, 4-amino-3-[4-(2,6-difluorophenoxy)phenyl]-1-[(3R)-1-[(E)-4-(dimethylamino)but-2-enoyl]-3-piperidyl]-6H-pyrrolo[2,3-d]pyridazin-7-one] | ≤ 10 | – |
| C=CC(=O)N1CCCC(n2cc(-c3ccc(Oc4ccc(F)cc4)cc3)c3c(N)n[nH]c(=O)c32)C1 (centres unmarked) [Example 60, 1-(1-acryloylpiperidin-3-yl)-4-amino-3-(4-(4-fluorophenoxy)phenyl)-1H-pyrrolo[2,3-d]pyridazin-7(6H)-one] | 10 to 1000 | – |
| CN(C)C/C=C/C(=O)N1CCCC(n2cc(-c3ccc(Oc4ccc(F)cc4)cc3)c3c(N)n[nH]c(=O)c32)C1 (centres unmarked) [Example 61, 4-amino-1-[1-[(E)-4-(dimethylamino)but-2-enoyl]-3-piperidyl]-3-[4-(4-fluorophenoxy)phenyl]-6H-pyrrolo[2,3-d]pyridazin-7-one] | 10 to 1000 | – |
| C=CC(=O)N1CCCC(n2cc(-c3ccc(Oc4cccc(F)c4)cc3)c3c(N)n[nH]c(=O)c32)C1 (centres unmarked) [Example 62, 1-(1-acryloylpiperidin-3-yl)-4-amino-3-(4-(3-fluorophenoxy)phenyl)-1H-pyrrolo[2,3-d]pyridazin-7(6H)-one] | ≤ 10 | – |
